Measured values reported in ChEMBL document CHEMBL1151632, “15-Deacetylsergeolide, a potent antileukemic quassinoid from Picrolemma pseudocoffea” (1984).

Assays:
P388 [1] = assay: In vivo cytotoxicity against mouse P388 cells at 0.63 mg/kg relative to control; type: functional
P388 [2] = assay: In vivo cytotoxicity against mouse P388 cells at 1.25 mg/kg relative to control; type: functional

Structure (SMILES)	T/C (P388 [1]) [%]	T/C (P388 [2]) [%]
COC(=O)[C@]12OC[C@]34[C@H]([C@@H](O)[C@@H]1O)[C@@]1(C)C=C5OC(=O)C=C5[C@@H](C)[C@@H]1C[C@H]3OC(=O)[C@H](O)[C@@H]24 [DEACETYLSERGEOLIDE]	150	–
COC(=O)[C@]12OC[C@]34[C@H]([C@@H](O)[C@@H]1O)[C@@]1(C)C=C5OC(=O)C=C5[C@@H](C)[C@@H]1C[C@H]3OC(=O)[C@H](OC(C)=O)[C@@H]24 [SERGEOLIDE]	–	169
